Source: patent US5484911A, “Nucleoside 5'-diphosphate conjugates of ether lipids” (Health Research, Inc., priority 1993, dated 1996)
Like-named read-outs stand apart in the source and are kept apart here.

Assays:
[1] = system: L1210 lymphoid leukemia; assay: In vivo test against i.p. implanted L1210 lymphoid leukemia in DBA/2J mice
Procedure: AZTDP-DL-PTBA was also tested for in vivo cytotoxicity against i.p. implanted L1210 lymphoid leukemia (10^6 cells) in DBA/2J mice.

[2] = system: HIV-1; assay: microbe, parasite or virus in culture; type: cell-based
Text: (§1) FIG. 3. Anti-HIV activity of AZTDP-DL-PTBA from the National Cancer Institute Developmental Therapeutics Program In-Vitro Testing Results; NSC 648540-S/1; Plate 5440; Lab 9N; SSPL:129N; Primary Screen Assay; Test Date, Jan. 21, 1992; Solubility Ind.: 1; Report Date, Apr. 27, 1992; Cell Line, CEM-IW; Solvent: Saline<0.9% (MEDIA).
(§2) FIG. 4. Anti-HIV activity of AZddUDP-DL-PTBA from the National Cancer Institute Developmental Therapeutics Program In-Vitro Testing Results; NSC: 648541-T/1; Plate 5466; Lab 9N; SSPL: 129N; Primary Screen Assay; Test Date, Jan. 21, 1992; Solubility Ind.: 1; Report Date, Apr. 27, 1992; Cell Line: CEM-IW; Solvent: Saline<0.9% (MEDIA).
(§3) FIG. 5. Anti-HIV activity of ddCDP-DL-PTBA from the National Cancer Institute Developmental Therapeutic Program In-Vitro Testing Results; NSC: D- 652872-A/1; Plate 24; Lab 9N; Primary Screen Assay; Test Date, Jul. 23, 1992; Solubility Ind.: 1; Report Date: Aug. 7, 1992; Cell Line: CEM-IW; Solvent: Saline<0.9% (MEDIA).
(§4) FIG. 6. Anti-HIV activity of AZTDP-DL-PMA from the National Cancer Institute Developmental Therapeutics Program In-Vitro Testing Results; NSC: D- 652873-C/1; Plate 24; Lab 9N; SSPL: 129N; Primary Screen Assay; Test Date, Jul. 23, 1992; Solubility Ind.: 1; Report Date, Sep. 11, 1992; Cell Line: CEM-IW; Solvent: Saline<0.9% (MEDIA).
Anti-HIV evaluation for the compounds was performed at the National Cancer Institute, National Institute of Health and is presented in FIGS. 3-6.
(§5) The procedure is designed to detect agents acting at any stage of the virus reproductive cycle (Weislow, et al., J. Natl. Cancer Inst. 81, 577, 1989). The assay basically involves the killing of T4 lymphocytes by HIV. Small amounts of HIV are added to cells, and a complete cycle of virus reproduction is necessary to obtain the required cell killing. Agents that interact with virions, cells, or virus gene-products to interfere with viral activities will protect cells from cytolysis. Compounds that degenerate or are rapidly metabolized in the culture conditions may not show activity in this screen. All tests are compared with at least one positive (e.g., AZT-treated) control done at the same time under identical conditions.
(§6) Compound was dissolved in DMSO then diluted 1:100 in cell culture medium before preparing serial half-log10 dilutions. T4 lymphocytes (CEM cell line) were added and after a brief interval HIV-1 was added, resulting in a 1:200 final dilution of the compound. Uninfected cells with the compound served as a toxicity control, and infected and uninfected without the compound served as basic controls. Cultures were incubated at 37° C. in a 5% CO2 atmosphere for 6 days. The tetrazolium salt, XTT, was added to the wells, and cultures were incubated to allow formazan color development by viable cells. Individual wells were analyzed spectrophotometrically to quantitate formazan production, and in addition were viewed microscopically for detection of viable cells and confirmation of protective activity. Drug-treated virus-infected cells were compared with drug-treated noninfected cells and with other appropriate controls (untreated infected and untreated noninfected cells, drug-containing wells without cells, etc.) on the same plate. Data were reviewed in comparison with other tests done at the same time and a determination about activity was made.

[3] = in vivo; parameters: species or system Female NIH-Swiss mice; conditions: mouse, ip, 394 mg/kg
Procedure: FIG. 7. Mouse serum concentration of AZT following administration of AZT or AZTDP-DL-PTBA Female NIH-Swiss mice weighing 25-30 g were administered i.p. with AZT (100 mg/kg) or AZTDP-DL-PTBA (394 mg/kg, equivalent to 100 mg/kg AZT). Three mice were sacrificed at the designated time (up to 24 hr) and AZT in the serum was analyzed by a HPLC method.
Female NIH-Swiss mice weighing 25-30 g were administered intraperitoneally (i.p.) with 394 mg/kg of AZTDP-DL-PTBA (equivalent to 100 mg/kg AZT). Three mice were sacrificed at the designated time (up to 24 hours) and AZT in the serum was analyzed by an HPLC method. […] The intact conjugate level in the serum was unable to be checked by the HPLC method.

[4] = Cytotoxicity to uninfected CEM cells (toxicity control of the anti-HIV assay); type: cell-based; conditions: human
Text: as §1, §2, §3, §4, §5, §6

[5] = Solubility in water; type: physicochemical
Procedure: Solubility of AZTDP-DL-PTBA in water is only 0.58 mM. Thus, the compounds in the present invention were formulated in a micellar solution by sonication for the biological testings such as anti-HIV screenings. The compound was suspended in sterile water and then sonicated using a Branson Sonifier Cell Disruptor 200 at control 2-3 for 5 min (temp 20°-60° C.). The solution was sterile-filtered through a 0.22 μm membrane filter into a sterile receiving container under a laminar flow cabinet. The compound was existed as micelles and the micellar solution was stored in a refrigerator.

With CCCCCCCCCCCCCCCCCCSCC(COP(=O)(O)OP(=O)(O)OC[C@H]1O[C@@H](n2cc(C)c(=O)[nH]c2=O)C[C@@H]1N=[N+]=[N-])OC(=O)CCCCCCCCCCCCCCC (mixture of isomers) [AZTDP-DL-PTBA] the “% ILS (increase in life span)” value ([1]; 100-300 mg (95-285 μmole)/kg, L1210 10^6 cells i.p.) was 0%, the Toxicity ([1]; 100-300 mg/kg, leukemic mice) was “Toxicity as reflected in weight loss was observed” and the “concentration at which protection was lost” value ([2]; HIV-infected CEM cells) was 180 µM. The viability at 0.58 µM ([2]; Human immunodeficiency virus 1, CCRF-CEM, at as low as 5.80×10^-7 M, read-out: protected HIV-infected CEM cells) was 80%, the viability at 180 µM ([2]; Human immunodeficiency virus 1, CCRF-CEM, dose 1.80 × 10^-4 Molar (Tables 1, 2), read-out: INFECTED RESPONSE Percent of Control) was 1.53% and the viability at 18 µM ([2]; Human immunodeficiency virus 1, CCRF-CEM, dose 1.80 × 10^-5 Molar (Tables 1, 2), read-out: INFECTED RESPONSE Percent of Control) was 110%. For the same compound, the viability at 1.8 µM ([2]; Human immunodeficiency virus 1, CCRF-CEM, dose 1.80 × 10^-6 Molar (Tables 1, 2), read-out: INFECTED RESPONSE Percent of Control) was 95.6%, the viability at 580 µM ([2]; Human immunodeficiency virus 1, CCRF-CEM, dose 5.80 × 10^-4 Molar (Tables 1, 2), read-out: INFECTED RESPONSE Percent of Control) was 0.57% and the viability at 58 µM ([2]; Human immunodeficiency virus 1, CCRF-CEM, dose 5.80 × 10^-5 Molar (Tables 1, 2), read-out: INFECTED RESPONSE Percent of Control) was 122%. The viability at 5.8 µM ([2]; Human immunodeficiency virus 1, CCRF-CEM, dose 5.80 × 10^-6 Molar (Tables 1, 2), read-out: INFECTED RESPONSE Percent of Control) was 98.1%, the viability at 0.58 µM ([2]; Human immunodeficiency virus 1, CCRF-CEM, dose 5.80 × 10^-7 Molar (Tables 1, 2), read-out: INFECTED RESPONSE Percent of Control) was 81.6% and the Conclusion ([2]; NCI screen conclusion, Tables 1-4) was “CONFIRMED ACTIVE”. The “conclusion / reported as anti-HIV drug” value ([2]; NCI screening results) was “active”, the “in vitro anti-HIV activity” value ([2]; result in words) was “strong in vitro anti-HIV activity” and the half-life [3] was 7.85 h. For the same compound, the MCC ([4]; cem cells, read-out: concentration at which the compound started to show the cytotoxicity) was 100 µM, the viability at 180 µM ([4]; uninfected cem cells, dose 1.80 × 10^-4 Molar (Tables 1, 2), read-out: UNINFECTED RESPONSE Percent of Control) was 0.9% and the viability at 18 µM ([4]; uninfected cem cells, dose 1.80 × 10^-5 Molar (Tables 1, 2), read-out: UNINFECTED RESPONSE Percent of Control) was 106%. The viability at 1.8 µM ([4]; uninfected cem cells, dose 1.80 × 10^-6 Molar (Tables 1, 2), read-out: UNINFECTED RESPONSE Percent of Control) was 98.7%, the viability at 580 µM ([4]; uninfected cem cells, dose 5.80 × 10^-4 Molar (Tables 1, 2), read-out: UNINFECTED RESPONSE Percent of Control) was -0.54% and the viability at 58 µM ([4]; uninfected cem cells, dose 5.80 × 10^-5 Molar (Tables 1, 2), read-out: UNINFECTED RESPONSE Percent of Control) was 113%. The viability at 5.8 µM ([4]; uninfected cem cells, dose 5.80 × 10^-6 Molar (Tables 1, 2), read-out: UNINFECTED RESPONSE Percent of Control) was 95.9%, the viability at 0.58 µM ([4]; uninfected cem cells, dose 5.80 × 10^-7 Molar (Tables 1, 2), read-out: UNINFECTED RESPONSE Percent of Control) was 97% and the CC50 ([4]; CEM cells, read-out: cytotoxicity (IC50)) was 110 µM. It also gave a CC50 at 144 h ([4]; uninfected CEM-IW cells, 6 days, XTT, Tables 1-4, read-out: 1C50(Molar) (cytotoxicity)) of 110 µM and a solubility [5] of 580 µM.
